Measured values from US7459455B2, “Pyrimidine compounds” (SmithKline Beecham Corporation, priority 2002, dated 2008).
Structures can show the parent of a compound that is named as a salt.

Legend:
Recombinant GST-Tie2 = biological target: T1, Recombinant GST-Tie2 (Homo sapiens, UniProt Q02763); test: Tie2 Fluorescence Polarization Kinase Activity Assay (TIE2-FP); type: biochemical; conditions: activated Tie2, 200 μM ATP
T1 construct: GST
Procedure: Tie2 Fluorescence Polarization Kinase Activity Assay: (TIE2-FP)
Activation of Recombinant Tie2 Activation:
Recombinant GST-Tie2 was activated by incubating the enzyme in 20 mM Tris-HCl, pH 7.5, 12 mM MgCl2, 100 mM NaCl, 20 μM sodium vanidate, 1 mM DT and 300 μM ATP at room temperature for 2 hours. The activation mixture was then passed through a NAP-25 desalting column (Pharmacia Biotech cat. no. 17-0852-O2) to remove the free ATP. The activated enzyme was stored as aliquots at −80° C. in 20 mM Tris-HCl, pH 7.5 and 100 mM NaCl.
The final assay conditions were 50 mM HEPES, pH 7.5, 5% DMSO (when screening compounds), 200 μM ATP, 5 mM MgCl2, 1 mM DTT, 50 μM sodium vanidate, 1 nM activated enzyme, and 200 μM peptide. IC50's of compounds were measured under subsaturating ATP (200 μM) and varing concentrations of activated Tie2 and peptide substrate (RFWKYEFWR-OH; MW 1873 Da, TFA salt). Panvera Anti-phosphotyrosine antibody (Cat#P2840) and PTK Green Tracer (Cat#P2842) were used to detect the phosphorylated peptide. Polarization was measured on a TECAN Polarion in 138-second cycles for 30 minutes at room temperature. IC50's were then determined from the % polarization using normal calculation methods.

[1] = system: Human umbilical cord endothelial cells (HUVEC); test: VEGF-Driven Cellular Proliferation Assay: BrdU Incorporation Assay (VEGF-C); type: cell-based
Procedure: VEGF-Driven Cellular Proliferation Assay: BrdU Incorporation Assay (VEGF-C)
Human umbilical cord endothelial cells (HUVEC, Clonetics, CC2519) were passaged in Type I collagen-coated 100-mm petridishes in EGM-MV medium (Clonetics, CC3125) at 37 C in a humidified 5% CO2, 95% air incubator. (HUVEC passaged more than 6 times in vitro were discarded and not subjected to assaying.) The cells were harvested using trypsin/EDTA, counted using a haemocytometer and plated at 5000 cells/well in a Type I-collagen coated 96-well plate (Becton Dickinson, 354407) in M199 medium (Gibco BRL, 12340-030) containing 5% FBS (Hyclone, A 1115-L) and gentamicin (at 50 ug/ml, Gibco BRL). After incubation overnight at 37° C., the media were replaced with 100 ul of M199 serum-free medium containing compounds at various concentrations with 0.6% DMSO and gentamicin. The compounds were diluted in serum-free M199 medium from 10 mM stock solutions prepared in 100% DMSO. After a 30 min incubation at 37° C. the cells were fed with 100 ul of serum-free M199 medium containing gentamicin, 0.2% culture-grade bovine serum albumin (BSA, Sigma A1993) and 20 ng/ml of VEGF (R&D systems, 293-VE) or 0.6 ng/ml of basic FGF (R&D systems, 233-FB), and cultured at 37° C. for another 24 h. The cells were pulsed with bromodeoxyuridine (BrdU at 10 μM in serum-free M199) at 37° C. for an additional 24 h. The incorporation of BrdU into the proliferating HUVEC were analyzed using BrdU Cell Proliferation ELISA (Roche Molecular Biochemicals, 1647229) according to the manufacturer's protocols. The optical density at 450 nm was measured with a multilabel counter (ARVO SX, Wallac). The percent inhibition of cell growth was calculated relative to blank control wells. The concentration of test compound that inhibits 50% of cell growth (IC50) was interpolated using nonlinear regression (Levernberg-Marquardt) and the equation, γ=Vmax (1−x/(K+x))+Y2, where “K” was equal to the IC50. The IC50 values were converted to pIC50 values, i.e., −log IC50 in Molar concentration.

GST-VEGFR2 = biological target: T2, GST-VEGFR2 (Homo sapiens, UniProt P35968); test: VEGF-R2 Enzyme Assay (VEGF-E), LANCE method; type: biochemical; conditions: GST-VEGFR2, 75 μM ATP, peptide phosphorylation
T2 construct: GST-VEGFR2, baculovirus expressed recombinant constructs of the intracellular domains of human TIE2 tagged by GST; made in house
Description: VEGF-R2 Enzyme Assay VEGF-E)
The VEGF enzyme assay used the LANCE method (Wallac) and GST-VEGFR2, baculovirus expressed recombinant constructs of the intracellular domains of human TIE2 tagged by GST. The method measured the ability of the purified enzymes to catalyse the transfer of the γ-phosphate from ATP onto tyrosine residues in a biotinylated synthetic peptide, (biotin-aminohexyl-EEEEYFELVAKKKK-NH2). This peptide phosphorylation was detected using the following procedure: GST-VEGFR2 was incubated for 40-60 mins at room temperature with 75 μM ATP, 5 mM MgCl2, 0.1 mM DTT, 0.1 mg/mL BSA and the test compound (diluted from a 10 mM stock in DMSO for desired concentration) in 100 mM HEPES buffer. The reaction was stopped by the addition of EDTA (final concentration 50 mM). Streptavidin linked-APC (allophycocyanin, Molecular Probe) and Europium-labeled anti-phosphorylated tyrosile antibody (Wallac) were then added at the final concentration of 15 nM and 1 nM, respectively. The APC signal was measured using an ARVO multilabel counter (Wallac Berthold, Japan). The percent inhibition of activity was calculated relative to blank control wells. The concentration of test compound that inhibits 50% of activity (IC50) was interpolated using nonlinear regression (Levernberg-Marquardt) and the equation, γ=Vmax (1−x/(K+x))+Y2, where “K” was equal to the IC50. The IC50 values were converted to pIC50 values, i.e., −log IC50 in Molar concentration.

Measured: IC50

T1 sequence (Q02763 770-1124 limits assumed): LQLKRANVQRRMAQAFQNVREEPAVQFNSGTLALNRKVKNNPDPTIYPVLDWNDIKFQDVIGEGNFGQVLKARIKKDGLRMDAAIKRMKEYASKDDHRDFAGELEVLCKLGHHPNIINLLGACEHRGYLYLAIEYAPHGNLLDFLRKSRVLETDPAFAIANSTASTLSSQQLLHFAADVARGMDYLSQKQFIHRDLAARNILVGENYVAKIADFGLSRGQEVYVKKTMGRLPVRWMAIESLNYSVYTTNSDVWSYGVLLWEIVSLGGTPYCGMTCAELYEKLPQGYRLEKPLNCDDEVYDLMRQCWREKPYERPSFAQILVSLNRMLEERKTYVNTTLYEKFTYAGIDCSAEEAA
T2 sequence (P35968 786-1356 limits assumed): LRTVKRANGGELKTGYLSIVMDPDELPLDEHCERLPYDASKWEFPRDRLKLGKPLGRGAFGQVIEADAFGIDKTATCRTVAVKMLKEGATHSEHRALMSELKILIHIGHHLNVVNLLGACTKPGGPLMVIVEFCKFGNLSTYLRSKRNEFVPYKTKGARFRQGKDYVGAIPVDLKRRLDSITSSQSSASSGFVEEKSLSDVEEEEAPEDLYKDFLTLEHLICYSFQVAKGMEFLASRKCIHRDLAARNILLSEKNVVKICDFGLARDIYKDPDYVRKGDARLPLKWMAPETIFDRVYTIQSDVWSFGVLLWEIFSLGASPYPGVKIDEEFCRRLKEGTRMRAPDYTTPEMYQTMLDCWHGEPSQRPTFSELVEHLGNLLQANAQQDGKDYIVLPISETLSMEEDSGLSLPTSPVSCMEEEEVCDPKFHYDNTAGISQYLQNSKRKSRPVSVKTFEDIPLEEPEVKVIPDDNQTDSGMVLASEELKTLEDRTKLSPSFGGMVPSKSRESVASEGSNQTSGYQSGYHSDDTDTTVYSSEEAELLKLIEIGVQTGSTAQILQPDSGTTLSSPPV

CN(c1ccc(NC(=O)Nc2ccc(OC(F)(F)F)cc2)cc1)c1ccnc(Nc2cccc(S(N)(=O)=O)c2)n1 [Example 1, 3-{[4-(methyl{4-[({[4-(trifluoromethoxy)phenyl]amino}carbonyl)amino]phenyl}-amino)pyrimidin-2-yl]amino}benzenesulfonamide]
< 100 nM: all assays above

CN(c1ccc(NC(=O)Nc2ccc(C(F)(F)F)cc2)cc1)c1ccnc(Nc2cccc(S(N)(=O)=O)c2)n1 [Example 2, 3-{[4-(methyl{4-[({[4-(trifluoromethyl)phenyl]amino}carbonyl)amino]phenyl}amino)pyrimidin-2-yl]amino}benzenesulfonamide]
< 100 nM: all assays above

CN(c1ccc(NC(=O)Nc2ccc(Oc3ccccc3)cc2)cc1)c1ccnc(Nc2cccc(S(N)(=O)=O)c2)n1 [Example 3, 3-[(4-{methyl[4-({[(4-phenoxyphenyl)amino]carbonyl}amino)phenyl]amino}-pyrimidin-2-yl)amino]benzenesulfonamide]
< 100 nM: all assays above

Cc1cccc(NC(=O)Nc2ccc(N(C)c3ccnc(Nc4cccc(S(N)(=O)=O)c4)n3)cc2)c1 [Example 4, 3-[(4-{methyl[4-({[(3-methylphenyl)amino]carbonyl}amino)phenyl]amino}pyrimidin-2-yl)amino]benzenesulfonamide]
< 100 nM: all assays above

CN(c1ccc(NC(=O)NCc2ccccc2Cl)cc1)c1ccnc(Nc2cccc(S(N)(=O)=O)c2)n1 [Example 5, 3-({4-[[4-({[(2-chlorobenzyl)amino]carbonyl}amino)phenyl](methyl)amino]pyrimidin-2-yl}amino)benzenesulfonamide]
< 100 nM: all assays above

CCc1cccc(NC(=O)Nc2ccc(N(C)c3ccnc(Nc4cccc(S(N)(=O)=O)c4)n3)cc2)c1 [Example 6, 3-({4-[[4-({[(3-ethylphenyl)amino]carbonyl}amino)phenyl](methyl)amino]pyrimidin-2-yl}amino)benzenesulfonamide]
< 100 nM: all assays above

CN(c1ccc(NC(=O)Nc2cccc(F)c2)cc1)c1ccnc(Nc2cccc(S(N)(=O)=O)c2)n1 [Example 7, 3-({4-[[4-({[(3-Fluorophenyl)amino]corbonyl}amino)phenyl](methyl)amino]pyrimidin-2-yl}amino)benzenesulfonamide]
< 100 nM: all assays above

CCS(=O)(=O)c1ccc(OC)c(Nc2nccc(N(C)c3ccc(NC(=O)Nc4cccc(Cl)c4)cc3)n2)c1 [Example 8, N-(3-Chlorophenyl)-N′-{4-[(2-{[5-(ethylsulfonyl)-2-methoxyphenyl]amino}pyrimidin-4-yl)(methyl)amino]phenyl}urea]
< 100 nM: all assays above

CN(c1ccc(NC(=O)Nc2cccc(Cl)c2)cc1)c1ccnc(Nc2cccc(S(N)(=O)=O)c2)n1 [Example 9, 3-({4-[[4-({[(3-Chlorophenyl)amino]carbonyl}amino)phenyl](methyl)amino]-pyrimidin-2-yl}amino)benzenesulfonamide]
< 100 nM: all assays above

CN(c1ccc(NC(=O)Nc2ccccc2)cc1)c1ccnc(Nc2cccc(S(N)(=O)=O)c2)n1 [Example 10, 3-({4-[{4-[(anilinocarbonyl)amino]phenyl}(methyl)amino]pyrimidin-2-yl}amino)benzenesulfonamide]
< 100 nM: all assays above

CN(c1ccc(NC(=O)Nc2cc(C(F)(F)F)ccc2F)cc1)c1ccnc(Nc2cccc(S(N)(=O)=O)c2)n1 [Example 11, 3-({4-[{4-[({[2-Fluoro-5-(trifluoromethyl)phenyl]amino}carbonyl)amino]phenyl}(methyl)amino]pyrimidin-2-yl}amino)benzenesulfonamide]
< 100 nM: all assays above

CN(c1ccc(NC(=O)Nc2cccc(F)c2)cc1)c1ccnc(Nc2ccc(CS(C)(=O)=O)cc2)n1 [Example 12, N-(3-fluorophenyl)-N′-(4-{methyl[2-({4-[(methylsulfonyl)methyl]phenyl}amino)pyrimidin-4-yl]amino}phenyl)urea hydrochloride]
< 100 nM: all assays above

CN(c1ccc(NC(=O)Nc2cc(C(F)(F)F)ccc2F)cc1)c1ccnc(Nc2ccc(CS(C)(=O)=O)cc2)n1 [Example 13, N-[2-fluoro-5-(trifluoromethyl)phenyl]-N′-(4-{methyl[2-({4-(methylsulfonyl)methyl]phenyl}amino)pyrimidin-4-yl]amino}phenyl)urea hydrochloride]
< 100 nM: all assays above

CN(c1cccc(NC(=O)Nc2cc(C(F)(F)F)ccc2F)c1)c1ccnc(Nc2cccc(S(N)(=O)=O)c2)n1 [Example 14, 3-({4-[{3-[({[2-Fluoro-5-(trifluoromethyl)phenyl]amino}carbonyl)amino]phenyl}(methyl)amino]pyrimidin-2-yl}amino)benzenesulfonamide]
< 100 nM: all assays above

CN(c1cccc(NC(=O)Nc2cccc(Cl)c2)c1)c1ccnc(Nc2cccc(S(N)(=O)=O)c2)n1 [Example 15, 3-({4-[[3-({[(3-Chlorophenyl)amino]carbonyl}amino)phenyl](methyl)amino]pyrimidin-2-yl}amino)benzenesulfonamide]
< 100 nM: all assays above
